Assay results from publication PMC10669433 (Antibiotics, 2023).
“Also recorded” adds a separate entry of the source.

How the values were obtained:
[1] = test system: cardiovascular prosthetic infections (PVE, CEDI, PVGI); experiment: 18F-FDG PET/TC radiological improvement; format: in vivo, human; settings: 18F-FDG PET/TC available for nine patients; 6/9
Text: For diagnosis, all patients underwent clinical, microbiological, and echocardiographic evaluation (transthoracic echocardiography and transesophageal echocardiography [TEE]). Major echocardiographic criteria included vegetation, abscess, pseudoaneurysm, intracardiac fistula, valvular perforation or aneurysm, and new partial dehiscence of prosthetic valve. In addition, according to clinical indication, computed tomography (CT) angiography or cardiac one and/or 18F-fluorodeoxyglucose (FDG)-positron emission tomography (PET) PET were also performed.
Data collection included demographic information, Charlson Comorbidity Index (CCI), type and site of infection, microbiological isolation, prior antibiotic treatment, surgical procedure (performed or not, complete or partial), laboratory variables, and when available, radiological improvement (fluorodeoxyglucose positron emission tomography (FDG-PET) alone or in combination with computed tomographic angiography (CTA) to assess optimal duration of antibiotic treatment at follow-up).

[2] = test system: cardiovascular prosthetic infections (PVE, CEDI, PVGI); experiment: Clinical cure in patients with cardiovascular prosthetic infections treated with dalbavancin as sequential therapy (retrospective case series); format: in vivo, human
Experimental: Data were collected from May 2019 to May 2023 at the Modena University Hospital, a tertiary care hospital in Northern Italy. Cardiovascular infections included PVE, CEDI, and PVGI.
(§1) Clinical evaluation was carried out at the end of treatment (EOT) and at the end of a six-month follow-up. Primary outcome was clinical cure, defined as resolution of all clinical signs and symptoms of infection, with or without radiological improvement. […] Finally, for primary outcome, a comparison between patients treated with standard (the 1500 mg infusion regimen at day 1 and day 8, with subsequent 1000 mg administrations every 2 weeks) vs. TDM-guided approach was performed.

infective endocarditis [3] = test system: infective endocarditis; set-up: method as in PMID 37442488, PMID 30389305; settings: 124 subjects with infective endocarditis; cited from earlier work
[4] = cited from earlier work
Text: It is associated with good tissue penetration, including staphylococcal biofilms, making this antibiotic a promising agent to treat biofilm-mediated infections.

S. aureus = settings: dalbavancin group vs 22% in the SOC group, p = 0.484; cited from earlier work
Text: Unfortunately, all patients received dalbavancin as sequential therapy, with a medi ...

[5] = test system: cardiovascular prosthetic infections (PVE, CEDI, PVGI); experiment: Microbiological cure / relapse (blood cultures) in the case series; format: in vivo, human
Experimental: as §1

[6] = Adverse events in the case series; format: in vivo, human
[7] = test system: vancomycin-resistant enterococci with the Van A phenotype; settings: cited from earlier work
Text: (§2) Dalbavancin is a long-acting parenteral lipoglycopeptide, a semisynthetic derivative of teicoplanin. It is characterized by a large spectrum of action against Gram-positive bacteria, such as Staphylococcus aureus (including methicillin-resistant S. aureus, but also strains with intermediate sensitivity to vancomycin), Streptococcus agalactiae, Streptococcus pyogenes, Streptococcus anginosus, vancomycin-sensitive Enterococcus faecium, and Enterococcus faecalis; it is poorly active against vancomycin-resistant S. aureus (VRSA), and it is not active against vancomycin-resistant enterococci with t ...

[8] = test system: vancomycin-resistant S. aureus (VRSA); settings: cited from earlier work
Text: as §2

infective endocarditis [9] = settings: review, sequential dalbavancin in infective endocarditis, 170 patients; cited from earlier work

SMILES: CN[C@H]1C(=O)N[C@@H]2Cc3ccc(cc3)Oc3cc4cc(c3O[C@@H]3O[C@H](C(=O)O)[C@@H](O)[C@H](O)[C@H]3NC(=O)CCCCCCCCC(C)C)Oc3ccc(cc3Cl)[C@@H](O)[C@@H]3NC(=O)[C@H](NC(=O)[C@@H]4NC(=O)[C@@H](NC2=O)c2cc(cc(O)c2Cl)Oc2cc1ccc2O)c1ccc(O)c(c1)-c1c(O[C@H]2O[C@H](CO)[C@@H](O)[C@H](O)[C@@H]2O)cc(O)cc1[C@@H](C(=O)NCCCN(C)C)NC3=O [dalbavancin]
- Radiological improvement with a marked SUV reduction [1]: 66.6%
- Clinical cure according to causative pathogen: E. faecalis ([2]; 1/1 patient): 100%
- Clinical cure according to causative pathogen: G. morbillorum ([2]; 1/1 patient): 100%
- Clinical cure according to causative pathogen: CoNS ([2]; 2/2 patients): 100%
- Clinical cure according to causative pathogen: viridans Streptococcus ([2]; 3/3 patients): 100%
- Clinical cure according to causative pathogen: S. aureus ([2]; 3/5 patients): 60%
- Clinical success in patients treated without TDM ([2]; 3/5 patients): 60%
- Clinical cure, suppressive antibiotic therapy without complete source control ([2]; 6/9 patients): 66.6%
- Clinical cure at the EOT, cardiac implantable electronic devices infections (n = 3), % ([2]; CEDI, end of treatment): (66.6) %
- Clinical cure at the EOT, cardiac implantable electronic devices infections (n = 3), patients/evaluable ([2]; CEDI, end of treatment): 2/3
- Clinical cure at the EOT, prosthetic valve endocarditis (n = 8), % ([2]; PVE, end of treatment): (75) %
- Clinical cure at the EOT, prosthetic valve endocarditis (n = 8), patients/evaluable ([2]; PVE, end of treatment): 6/8
- Clinical cure at the EOT, prosthetic vascular grafts infections (n = 6), % ([2]; PVGI, end of treatment): (83.3) %
- Clinical cure at the EOT, prosthetic vascular grafts infections (n = 6), patients/evaluable ([2]; PVGI, end of treatment): 5/6
- Clinical cure at the EOT (n = 13), % ([2]; end of treatment, 10/13 patients): (76.9) %
- Clinical cure at the EOT (n = 13), patients cured/evaluable ([2]; end of treatment, dalbavancin 1500 mg day 1 and day 8, then further doses (fixed or TDM-guided), after first-line antibiotics): 10/13
- Clinical cure, patients who underwent the complete source control intervention ([2]; implant removal, 4/4 patients): 100%
- Clinical cure in TDM-guided group (n = 8), patients cured/evaluable ([2]; patients with TDM-guided redosing): 7/8
- Clinical Success End of Treatment ([2]; single patients): Yes (7 w); also recorded: Yes (25 w); also recorded: Yes (18 w); also recorded: Yes (29 w); also recorded: Yes (14 w); also recorded: Yes (47 w); also recorded: Yes (9 w); also recorded: No (16 w); also recorded: Yes (10 w); also recorded: Yes (20 w); also recorded: No (53 w); also recorded: No (12 w)
- Clinical Success Six Months Follow-Up ([2]; single patients, one table row per patient): Yes and No
- Clinical cure at six months of follow-up (n = 12), % ([2]; six-month follow-up): (75) %
- Clinical cure at six months of follow-up (n = 12), patients cured/evaluable ([2]; six-month follow-up): 9/12
- clinical success rate at 12 months of follow-up (infective endocarditis [3]): 95.2%
- elimination half-life [4]: 14 days
- total protein binding [4]: 93%
- clearance route ([4]; no active metabolites): predominantly renal
- treatment-related readmission rates within 30 days (S. aureus): 15%
- Microbiological relapse after treatment interruption (n = 13), patients/evaluable ([5]; after dalbavancin interruption): 1/13
- Microbiological cure at the EOT (n = 13), patients/evaluable ([5]; end of treatment, sustained negativity of blood cultures): 10/13
- Tolerability ([6]; 14 patients, long-term therapy): well tolerated
- Adverse effect reactions: impaired renal function, % ([6]; of N = 14 patients): (7.1) %
- Adverse effect reactions: rash, % ([6]; of N = 14 patients): (7.1) %
- activity against vancomycin-resistant enterococci with the Van A phenotype [7]: not active
- activity against vancomycin-resistant S. aureus (VRSA) [8]: poorly active
- overall clinical efficacy (infective endocarditis [9]): around 90%
